Patent publication US5344843A, “Cat-1 inhibitors, pharmaceutical compositions and methods of use” (Hoffman-La Roche Inc., priority 1992, dated 1994)
Counter-ions that a name gives are not always drawn. Like-named read-outs stand apart in the source and are kept apart here.

Target: T1, CAT-1 (carnitine acyltransferase 1) (Rattus norvegicus, UniProt Q63704)
T1 construct: This preparation is used as the isolated mitochondrial preparation; from tissue; host or cells: rat heart (atria removed), isolated mitochondria
T1 sequence (Q63704 1-772): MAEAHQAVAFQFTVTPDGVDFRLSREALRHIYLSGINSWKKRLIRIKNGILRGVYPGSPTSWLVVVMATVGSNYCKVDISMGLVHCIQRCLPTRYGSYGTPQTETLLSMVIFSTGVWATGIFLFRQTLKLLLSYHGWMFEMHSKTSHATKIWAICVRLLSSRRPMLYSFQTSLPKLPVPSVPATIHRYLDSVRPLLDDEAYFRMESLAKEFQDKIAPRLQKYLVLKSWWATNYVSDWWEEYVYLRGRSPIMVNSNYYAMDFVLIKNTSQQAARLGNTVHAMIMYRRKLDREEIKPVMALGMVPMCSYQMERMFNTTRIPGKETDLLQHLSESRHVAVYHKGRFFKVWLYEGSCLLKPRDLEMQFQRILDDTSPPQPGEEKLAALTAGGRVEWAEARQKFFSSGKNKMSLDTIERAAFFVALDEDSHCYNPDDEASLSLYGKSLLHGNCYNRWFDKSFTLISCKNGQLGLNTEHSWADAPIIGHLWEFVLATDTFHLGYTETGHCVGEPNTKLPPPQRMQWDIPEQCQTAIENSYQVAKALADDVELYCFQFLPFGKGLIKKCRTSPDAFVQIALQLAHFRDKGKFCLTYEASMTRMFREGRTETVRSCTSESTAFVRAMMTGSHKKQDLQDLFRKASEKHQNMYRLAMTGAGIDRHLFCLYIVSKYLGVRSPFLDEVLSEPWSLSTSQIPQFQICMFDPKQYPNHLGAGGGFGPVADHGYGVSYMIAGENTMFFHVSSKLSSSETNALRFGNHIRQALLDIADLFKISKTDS
Assay: Primary Screen--Inhibition of CAT-1 in isolated mitochondria
Assay type: biochemical
Set-up: inhibition: dose or concentration left out as unconfirmed

[1] = rat heart mitochondria, reduction of palmitoyl carnitine formation by 50%, read-out: Primary Screen IC50

Method: Primary Screen--Inhibitors of CAT-1 in 1Mitochondria
(a). Preparation of Mitochondria
The heart is rapidly removed from an anesthetized rat (sodium pentabarbitol) and placed in ice-cold homogenization buffer (sucrose, 250 mM; Tris, 10 mM; EDTA, 1 mM; BSA, 0.01%; pH=7.4). The atria and extraneous tissue are removed and the remainder is chopped with scissors. The pieces are rinsed in homogenization buffer before being homogenized in 10 mL of the same buffer for 5-7 seconds. The homogenate is then diluted with homogenization buffer (40 total volume) and centrifuged at 200 g for 20 minutes. The supernatant is withdrawn and centrifuged at 7000 g for 20 minutes and the resulting pellet is isolated, resuspended in 40 mL of homogenization buffer and centrifuged once more at 7000 g for 20 minutes. The isolated pellet is resuspended in 10 mL of homogenization buffer and stored at 4° C. until use. This preparation is used as the isolated mitochondrial preparation.
(b). Inhibition of CAT-1 assay
Isolated mitochondria (20 μL) are incubated with 60 μL of Tris/sucrose buffer (sucrose, 500 mM; Tris, 20 mM; KCl, 100 mM; EDTA, 2 mM; pH=7.0 plus 83 μM palmitoyl CoA, and BSA, 0.8 mg/mL and 10^-4 to 10^-10 M of the drug to be tested. After 10 minutes at 30° C., the reaction is started by addition of 10 μL of ^3 H-carnitine (final concentration=250 μM). After 5 minutes, the reaction is terminated by the addition of ice cold 70% perchloric acid (PCA). The precipitated solids so formed, containing the insoluble product of the enzyme palmitoyl carnitine, are captured on filter paper. The filter paper is washed with 7% PCA, then dried and placed in scintillation vials with 10 mL of scintillant (Aquasol, New England Nuclear) and counted for radioactivity. The rate of the reaction is assessed by the difference in radioactivity between zero time and five minutes in the absence of test compound. The ability of test compounds at selected concentrations to inhibit CAT-1 is determined by their ability to reduce the formation of the radioactive product. The IC50 of the test compound is the concentration of test compound that reduces the formation of radioactive product by 50%.

IC50 [1] [nM] | SMILES | also measured
200 | O=C(O)C(=O)c1ccc(OCCOc2ccc3c(c2)CCCC3)cc1 [Example 112, alpha-oxo-4-[[2-(5,6,7,8-tetrahydro-2-naphthalenyloxy)ethyl]oxy]benzeneacetic acid] | –
650 | O=C(O)C(=O)c1ccc(OCCOc2cc3ccccc3cc2OCCOc2ccccc2)cc1 [Example 116, alpha-oxo-4-[[2-[3-(2-phenoxyethoxy)-2-naphthalenyloxy]ethyl]oxy]benzeneacetic acid] | –
250 | O=C(O)C(=O)c1ccc(OCCOc2cc3ccccc3cc2OCCO)cc1 [Example 118, 4-[[2-[3-(2-hydroxyethoxy)-2-naphthalenyloxy]ethyl]oxy]-alpha-oxobenzeneacetic acid] | –
300 | O=C(O)C(=O)c1ccc(OCCOc2cc3ccccc3cc2O)cc1 [Example 121, 4-[[2-(3-hydroxy-2-naphthalenyloxy)ethyl]oxy]-alpha-oxobenzeneacetic acid] | –
260 | O=C(O)C(=O)c1ccc(OCCOc2ccc3cccnc3c2)cc1 [Example 127, alpha-oxo-4-[[2-(7-quinolyloxy)ethyl]oxy]benzeneacetic acid monohydrate] | –
440 | O=C(O)C(=O)c1ccc(OCCOc2ccc3ccncc3c2)cc1 [Example 129, 4-[[2-(7-isoquinolyloxy)ethyl]oxy]-alpha-oxobenzeneacetic acid (5:2) molar hydrate] | –
960 | O=C(O)C(=O)c1ccc(OCCOc2ccnc3ccccc23)cc1 [Example 131, alpha-oxo-4-[[2-(4-quinolyloxy)ethyl]oxy]benzeneacetic acid] | –
8900 | COC(=O)C(=O)c1ccc(OCCOc2ccc3cc(OC(C)=O)ccc3c2)cc1 [Example 138, 4-[[2-[6-(Acetyloxy)-2-naphthalenyloxy]ethyl]oxy]-alpha-oxobenzeneacetic acid methyl ester] | –
150 | O=C(O)C(=O)c1ccc(OCCCNC(=O)c2ccc3ccccc3c2)cc1 [Example 140, 4-[[3-(2-naphthoylamino)propyl]oxy]-alpha-oxobenzeneacetic acid] | –
700 | O=C(O)C(=O)c1ccc(OCc2cc3ccccc3o2)cc1 [Example 141, 4-[[2-benzofuranyl)methoxy]-alpha-oxobenzeneacetic acid] | –
5500 | O=C(O)C(=O)c1ccc(C#CCNC(=O)c2ccc3ccccc3c2)cc1 [Example 146, 4-[3-[[(2-naphthalenyl)carbonyl]amino]-1-propynyl]-alpha-oxobenzeneacetic acid] | –
6200 | O=C(O)C(=O)c1ccc(CCCNC(=O)c2ccc3ccccc3c2)cc1 [Example 147, 4-[3-[[(2-naphthalenyl)carbonyl]amino]propyl]-alpha-oxobenzeneacetic acid] | –
80 | O=C(O)C(=O)c1ccc(SCCOc2ccc3ccccc3c2)cc1 [Example 149, 4-[[2-(2-naphthalenyloxy)ethyl]thio]-alpha-oxobenzeneacetic acid] | –
930 | O=C(COc1ccc2ccccc2c1)Nc1ccc(C(=O)C(=O)O)cc1 [Example 153, 4-[[2-(2-naphthalenyloxy)acetyl]amino]-alpha-oxobenzeneacetic acid] | –
220 | O=C(O)C(=O)c1ccc(OCc2ccc3ccccc3c2)cc1 [Example 155, 4-[(2-naphthalenyl)methoxy]-alpha-oxobenzeneacetic acid] | –
5100 | O=C(O)C(=O)c1ccc(OCc2ccc3ccccc3n2)cc1 [Example 159, 4-[(2-quinolinyl)methoxy]-alpha-oxo-benzeneacetic acid] | –
3500 | O=C(C(=O)N(CCO)CCO)c1ccc(OCCOc2ccc3ccccc3c2)cc1 [Example 163, N,N-bis(2-hydroxyethyl)-4-[[2-(2-naphthalenyloxy)ethyl]oxy]-alpha-oxobenzeneacetamide] | –
700 | O=C(O)C(=O)c1ccc(NCCOc2ccc3ccccc3c2)cc1 [Example 168, 4-[[2-(2-naphthalenyloxy)ethyl]amino]-alpha-oxobenzeneaceticacid] | –

IC50 [1] [nM] | SMILES | also measured
4700 | Cc1cc(OCCOc2ccc3ccccc3c2)ccc1C(=O)C(=O)O [Example 183, 2-methyl-4-[2-(2-naphthalenyloxy)ethoxy]-alpha-oxobenzeneacetic acid (4:1) hydrate] | –
– | O=C(O)C(=O)c1cc(Cl)c(OCCOc2ccc3ccccc3c2)c(Cl)c1 [Example 189, 3,5-dichloro-4-[2-(2-naphthalenyloxy)ethoxy]-alpha-oxobenzeneacetic acid (6:1) molar benzene solvate] | inhibition: 28%
6700 | O=C(O)C(=O)c1c(Cl)cc(OCCOc2ccc3ccccc3c2)cc1Cl [Example 191, 2,6-dichloro-4-[2-(2-naphthalenyloxy)ethoxy]-alpha-oxobenzeneacetic acid] | –
– | COc1cc(OCCOc2ccc3ccccc3c2)cc(OC)c1C(=O)C(=O)O [Example 195, 2,6-dimethoxy-4-[2-(2-naphthalenyloxy)ethoxy]-alpha-oxobenzeneacetic acid] | inhibition: 24%
– | O=C(O)C(=O)c1cc(F)c(OCCOc2ccc3ccccc3c2)c(F)c1 [Example 203, 3,5-difluoro-4-[2-(2-naphthalenyloxy)ethoxy]-alpha-oxobenzeneacetic acid] | inhibition: 37%
10000 | O=C(O)C(=O)c1ccc(OCC(=O)N2CCN(c3ccccc3)CC2)cc1 [Example 249, 4-[2-oxo-2-(4-phenyl-1-piperazinyl)ethoxy]-alpha-oxobenzeneacetic acid] | –
400 | O=C(O)C(=O)c1ccc(OCC(=O)N2CCc3ccccc3C2)cc1 [Example 251, 4-[2-oxo-2-(1,2,3,4-tetrahydro-2-isoquinolinyl)ethoxy]-alpha-oxobenzeneacetic acid] | –
– | O=C(O)C(=O)c1ccc(OCC(=O)N2CCN(CCc3ccccc3C(F)(F)F)CC2)cc1 [Example 253, alpha-oxo-4-[2-oxo-2-[4-[2-[2-(trifluoromethyl)phenyl]ethyl]-1-piperazinyl]ethoxy]benzeneacetic acid (1:1) hydrochloride] | IC50: 500 nM
12000 | O=C(O)C(=O)c1ccc(OCC(=O)N2CCOCC2)cc1 [Example 255, 4-[2-(4-morpholinyl)-2-oxoethoxy]-alpha-oxobenzeneacetic acid] | –
1200 | O=C(O)C(=O)c1ccc(OCCCCCCc2cccc(OCc3ccccc3)c2OCc2ccccc2)cc1 [Example 259, 4-[6-[2,3-bis-(phenylmethoxy)phenyl]hexyloxy]-alpha-oxobenzeneacetic acid] | –
12000 | O=C(O)C(=O)c1ccc(OCCCn2c(=O)ccc3ccccc32)cc1 [Example 264, 4-[3-(1,2-dihydro-2-oxo-1-quinolinyl)propoxy]-alpha-oxobenzeneacetic acid] | –
– | CC(C)(C)c1cc(C(=O)CCCCOc2ccc(C(=O)C(=O)O)cc2)cc(C(C)(C)C)c1O [Example 266, 4-[5-[3,5-bis(1,1-dimethylethyl)-4-hydroxyphenyl]-5-oxopentyloxy]-alpha-oxobenzeneacetic acid] | inhibition at 10 µM (@ 10 μM): 48%
230 | CCCc1c(OCCCOc2ccc(C(=O)C(=O)O)cc2)ccc(C(=O)OC)c1O [Example 268, 4-[3-[3-hydroxy-4-(methoxycarbonyl)-2-propylphenoxy)propoxy]-alpha-oxobenzeneacetic acid] | –
1800 | CCCc1c(OCCCOc2ccc(C(=O)C(=O)O)cc2)ccc(C(=O)O)c1O [Example 269, 4-[3-[4-carboxy-3-hydroxy-2-propylphenoxy)propoxy]-alpha-oxobenzeneacetic acid] | –
460 | CCCc1c(OCCCOc2ccc(C(=O)C(=O)O)cc2)ccc(C(C)=O)c1OC [Example 271, 4-[3-[4-acetyl-3-methoxy-2-propylphenoxy)propoxy]-alpha-oxobenzeneacetic acid] | –
730 | CC(=O)c1ccc(OCCCOc2ccc(C(=O)C(=O)O)cc2)cc1O [Example 273, 4-[3-(4-acetyl-3-hydroxyphenoxy)propoxy]-alpha-oxobenzeneacetic acid] | –
570 | CC(C)(C)c1cc(SCCCOc2ccc(C(=O)C(=O)O)cc2)cc(C(C)(C)C)c1O [Example 275, 4-[3-[[3,5-bis(1,1-dimethylethyl)-4-hydroxyphenyl]thio]propoxy]-alpha-oxobenzeneacetic acid] | –
1400 | O=C(O)C(=O)c1ccc(OCC(=O)c2ccccc2-c2ccccc2)cc1 [Example 288, 4-[2-[[1,1'-biphenyl]-2-yl]-2-oxoethoxy]-alpha-oxobenzeneacetic acid] | –

SMILES | IC50 [1] [nM] | also measured
O=C(O)C(=O)c1ccc(OCCCCc2cccnc2)cc1 [Example 123, alpha-oxo-4-[4-(3-pyridinyl)butoxy]benzeneacetic acid] | 1500 | –
O=C(O)C(=O)c1ccc(OCCCCc2ccncc2)cc1 [Example 125, alpha-oxo-4-[4-(4-pyridinyl)butoxy]benzeneacetic acid] | 2000 | –
CCC(C)(C)C(=O)Oc1cccc2ccc(OCCOc3ccc(C(=O)C(=O)OC)cc3)cc12 [Example 133, 4-[[2-[8-(2,2-dimethyl-1-oxobutoxy)-2-naphthalenyloxy]ethyl]oxy]-alpha-oxobenzeneacetic acid methyl ester] | 35000 | –
